Experimental data reported in ChEMBL document CHEMBL5356971, “Optimization of the Antibacterial Spectrum and the Developability Profile of the Novel-Class Natural Product Corramycin” (J Med Chem, 2023).
≈ marks a conversion by molar mass, not a printed value. Numbered stars: 1 amine (or outer) side, 2 acyl side, 3 side chain; on linkers, the order of the positions; unused ones are H or OH. Square brackets hold non-standard residues; d marks the D form. Peptide text beside a SMILES is read from it. * marks the point of attachment. Ava(2S,3R-(OH)2,4S-OMe) = CO[C@@H](CN[*:1])[C@H](O)[C@H](O)C(=O)[*:2]; dHis(βS-OH,π-Me) = Cn1cncc1[C@@H](O)[C@@H](N)C(=O)O; Butanoyl(2R-OH,3S-OH) = C[C@H](O)[C@@H](O)C(=O)*; Val(3-OH) = CC(C)(O)[C@H](N)C(=O)O; NMeF = CN[C@@H](Cc1ccccc1)C(=O)O

Experiments:
[1] = Permeability of compound in human Caco-2 cells; type: ADME, cell-based; details: read-out: permeability
[2] = target: Sodium channel protein type 2 subunit alpha (Homo sapiens, UniProt Q99250); assay: Inhibition of Nav1.2 (unknown origin)
Sodium channel protein type 2 subunit alpha, sequence (Q99250 whole entry): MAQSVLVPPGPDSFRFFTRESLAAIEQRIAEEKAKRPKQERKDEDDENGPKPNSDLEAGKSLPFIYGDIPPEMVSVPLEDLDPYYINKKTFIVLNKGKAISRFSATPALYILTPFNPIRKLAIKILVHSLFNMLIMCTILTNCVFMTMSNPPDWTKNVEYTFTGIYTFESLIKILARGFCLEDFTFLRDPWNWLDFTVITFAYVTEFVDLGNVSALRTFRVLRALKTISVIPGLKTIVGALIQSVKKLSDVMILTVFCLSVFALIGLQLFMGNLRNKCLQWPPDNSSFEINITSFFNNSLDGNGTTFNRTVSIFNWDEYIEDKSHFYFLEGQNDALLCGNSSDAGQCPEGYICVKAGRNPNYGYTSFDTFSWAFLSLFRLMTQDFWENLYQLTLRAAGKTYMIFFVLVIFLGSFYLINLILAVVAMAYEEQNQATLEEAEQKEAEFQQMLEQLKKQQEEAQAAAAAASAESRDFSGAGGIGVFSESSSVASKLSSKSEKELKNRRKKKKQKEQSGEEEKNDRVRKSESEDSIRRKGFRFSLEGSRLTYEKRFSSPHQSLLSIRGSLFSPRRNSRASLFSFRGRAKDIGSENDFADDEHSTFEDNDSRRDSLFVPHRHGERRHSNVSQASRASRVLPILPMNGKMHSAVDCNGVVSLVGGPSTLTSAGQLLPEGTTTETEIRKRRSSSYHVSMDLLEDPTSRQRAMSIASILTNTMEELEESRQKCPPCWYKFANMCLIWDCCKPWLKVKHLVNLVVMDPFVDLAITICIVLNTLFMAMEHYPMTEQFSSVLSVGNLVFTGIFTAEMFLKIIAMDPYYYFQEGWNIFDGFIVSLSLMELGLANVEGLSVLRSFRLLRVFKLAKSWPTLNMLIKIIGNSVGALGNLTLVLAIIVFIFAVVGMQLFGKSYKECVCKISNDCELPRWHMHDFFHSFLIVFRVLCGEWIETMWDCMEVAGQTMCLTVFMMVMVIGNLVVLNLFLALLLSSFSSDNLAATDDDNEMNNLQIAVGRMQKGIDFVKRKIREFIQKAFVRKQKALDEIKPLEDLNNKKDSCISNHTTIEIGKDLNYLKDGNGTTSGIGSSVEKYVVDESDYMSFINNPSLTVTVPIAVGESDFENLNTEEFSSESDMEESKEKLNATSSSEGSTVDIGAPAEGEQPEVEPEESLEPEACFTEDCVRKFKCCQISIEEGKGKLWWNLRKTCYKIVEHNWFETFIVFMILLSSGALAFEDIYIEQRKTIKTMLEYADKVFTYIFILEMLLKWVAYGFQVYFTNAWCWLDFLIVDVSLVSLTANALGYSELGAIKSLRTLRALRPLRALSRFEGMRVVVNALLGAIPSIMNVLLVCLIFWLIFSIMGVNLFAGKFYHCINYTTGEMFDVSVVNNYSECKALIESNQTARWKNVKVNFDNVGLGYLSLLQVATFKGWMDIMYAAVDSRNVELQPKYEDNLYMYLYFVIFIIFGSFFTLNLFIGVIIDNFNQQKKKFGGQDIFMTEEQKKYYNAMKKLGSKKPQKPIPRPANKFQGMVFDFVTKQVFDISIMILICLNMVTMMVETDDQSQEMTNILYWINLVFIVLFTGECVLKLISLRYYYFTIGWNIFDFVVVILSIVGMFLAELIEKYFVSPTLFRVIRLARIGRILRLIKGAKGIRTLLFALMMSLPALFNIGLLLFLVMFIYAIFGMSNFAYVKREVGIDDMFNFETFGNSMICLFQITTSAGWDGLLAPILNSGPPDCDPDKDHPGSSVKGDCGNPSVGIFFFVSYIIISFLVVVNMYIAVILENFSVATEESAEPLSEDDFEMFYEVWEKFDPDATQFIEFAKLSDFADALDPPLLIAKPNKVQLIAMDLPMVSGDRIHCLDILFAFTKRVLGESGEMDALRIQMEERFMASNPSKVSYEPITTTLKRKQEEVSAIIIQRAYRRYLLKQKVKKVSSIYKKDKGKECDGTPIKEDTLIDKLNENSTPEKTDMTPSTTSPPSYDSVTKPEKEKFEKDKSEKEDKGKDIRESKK

[3] = target: Voltage-dependent T-type calcium channel subunit alpha-1G (Homo sapiens, UniProt O43497); assay: Inhibition of Cav3.1 (unknown origin)
[4] = target: Sodium channel protein type 5 subunit alpha (Homo sapiens, UniProt Q14524); assay: Inhibition of Nav1.5 (unknown origin)
Sodium channel protein type 5 subunit alpha, sequence (Q14524 whole entry): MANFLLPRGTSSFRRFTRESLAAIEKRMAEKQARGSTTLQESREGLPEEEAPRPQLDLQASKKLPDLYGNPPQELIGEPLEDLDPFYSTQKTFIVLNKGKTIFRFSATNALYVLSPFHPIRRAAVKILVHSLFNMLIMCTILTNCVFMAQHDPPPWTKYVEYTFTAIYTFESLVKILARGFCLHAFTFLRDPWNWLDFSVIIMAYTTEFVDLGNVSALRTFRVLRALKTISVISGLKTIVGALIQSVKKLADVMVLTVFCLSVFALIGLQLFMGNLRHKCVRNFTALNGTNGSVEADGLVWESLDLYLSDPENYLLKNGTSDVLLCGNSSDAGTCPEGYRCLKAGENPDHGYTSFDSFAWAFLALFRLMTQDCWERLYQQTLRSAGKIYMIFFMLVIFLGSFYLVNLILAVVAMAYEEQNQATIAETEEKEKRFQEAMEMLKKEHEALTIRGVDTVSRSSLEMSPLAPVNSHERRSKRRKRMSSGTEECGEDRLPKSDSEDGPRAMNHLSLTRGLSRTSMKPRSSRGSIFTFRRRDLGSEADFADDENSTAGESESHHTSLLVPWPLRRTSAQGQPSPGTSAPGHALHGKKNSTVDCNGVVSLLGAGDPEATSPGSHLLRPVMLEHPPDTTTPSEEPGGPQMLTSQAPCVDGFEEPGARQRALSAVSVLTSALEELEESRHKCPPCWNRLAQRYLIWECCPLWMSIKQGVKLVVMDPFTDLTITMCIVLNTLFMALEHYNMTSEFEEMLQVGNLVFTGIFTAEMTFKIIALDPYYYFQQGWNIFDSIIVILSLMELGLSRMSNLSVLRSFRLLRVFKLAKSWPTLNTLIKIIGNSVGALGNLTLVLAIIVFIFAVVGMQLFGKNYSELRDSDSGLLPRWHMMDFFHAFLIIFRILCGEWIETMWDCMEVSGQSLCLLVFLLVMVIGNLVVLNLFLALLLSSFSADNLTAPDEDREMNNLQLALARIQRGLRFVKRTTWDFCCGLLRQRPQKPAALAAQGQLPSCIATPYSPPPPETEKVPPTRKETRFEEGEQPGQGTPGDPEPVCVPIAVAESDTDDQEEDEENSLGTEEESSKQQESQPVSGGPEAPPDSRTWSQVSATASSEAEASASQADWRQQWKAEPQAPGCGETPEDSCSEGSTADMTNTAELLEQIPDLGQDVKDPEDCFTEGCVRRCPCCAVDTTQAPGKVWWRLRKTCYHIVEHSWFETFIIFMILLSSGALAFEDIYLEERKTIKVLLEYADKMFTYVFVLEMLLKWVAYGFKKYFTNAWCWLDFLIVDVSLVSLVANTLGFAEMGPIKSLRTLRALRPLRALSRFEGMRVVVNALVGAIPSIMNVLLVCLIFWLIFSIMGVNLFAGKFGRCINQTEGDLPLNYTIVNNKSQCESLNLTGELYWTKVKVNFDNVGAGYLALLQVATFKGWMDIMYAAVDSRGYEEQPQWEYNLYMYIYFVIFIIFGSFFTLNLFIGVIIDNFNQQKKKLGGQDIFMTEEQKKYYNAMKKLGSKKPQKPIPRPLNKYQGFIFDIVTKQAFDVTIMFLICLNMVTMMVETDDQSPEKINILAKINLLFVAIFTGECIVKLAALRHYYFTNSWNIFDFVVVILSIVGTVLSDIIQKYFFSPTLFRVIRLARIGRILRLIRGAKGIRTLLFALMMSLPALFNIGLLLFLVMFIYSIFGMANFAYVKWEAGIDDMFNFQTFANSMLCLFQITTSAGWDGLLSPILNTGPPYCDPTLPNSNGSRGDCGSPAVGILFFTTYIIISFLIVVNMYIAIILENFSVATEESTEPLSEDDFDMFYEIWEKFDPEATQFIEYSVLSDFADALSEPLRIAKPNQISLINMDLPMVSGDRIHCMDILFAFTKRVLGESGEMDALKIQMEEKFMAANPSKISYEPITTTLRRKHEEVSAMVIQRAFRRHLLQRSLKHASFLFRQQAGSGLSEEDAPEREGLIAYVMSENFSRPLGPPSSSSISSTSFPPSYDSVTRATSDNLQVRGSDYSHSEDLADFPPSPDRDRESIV

Klebsiella pneumoniae [5] = assay: Antibacterial activity against Klebsiella pneumoniae ATCC 13883 assessed as reduction in microbial growth incubated for 20 to 22 hrs by CLSI based analysis; type: functional; details: time 20-22 hrs
Escherichia coli [6] = assay: Antibacterial activity against wild type Escherichia coli ATCC 35218 assessed as reduction in microbial growth incubated for 20 to 22 hrs by CLSI based analysis; type: functional; details: time 20-22 hrs
Escherichia coli [7] = assay: Antibacterial activity against Escherichia coli D22 assessed as reduction in microbial growth incubated for 20 to 22 hrs by CLSI based analysis; type: functional; details: time 20-22 hrs
[8] = Metabolic stability in mouse lung assessed as M1 metabolite formation measured upto 4 hrs by UPLC-MS analysis; type: ADME, tissue-based
Acinetobacter baumannii [9] = assay: Antibacterial activity against wild type Acinetobacter baumannii ATCC 19606 assessed as reduction in microbial growth incubated for 20 to 22 hrs by CLSI based analysis; type: functional; details: time 20-22 hrs
Pseudomonas aeruginosa = assay: Antimicrobial activity against Pseudomonas aeruginosa assessed as microbial growth inhibition; type: functional
Acinetobacter baumannii [10] = assay: Antibacterial activity against Acinetobacter baumannii ATCC 19606 assessed as reduction in microbial growth incubated for 20 to 22 hrs by CLSI based analysis; type: functional; details: time 20-22 hrs
HepG2 = assay: Cytotoxicity against human HepG2 cells assessed as inhibition of cell growth at 30 uM incubated for 40 hrs by celltiterglo assay; type: functional
[11] = Metabolic stability in mouse kidney assessed as parent compound remaining measured after 1 hrs by UPLC-MS analysis; type: ADME, tissue-based; details: read-out: Stability
[12] = Metabolic stability in mouse kidney assessed as M1 metabolite formation measured upto 4 hrs by UPLC-MS analysis; type: ADME, tissue-based
Klebsiella pneumoniae [13] = assay: Antimicrobial activity against Klebsiella pneumoniae assessed as microbial growth inhibition; type: functional
[14] = Lipophilicity, log D of the compound at pH 7.4; type: physicochemical; details: buffer
Escherichia coli [15] = assay: Antibacterial activity against Escherichia coli infected in mouse model assessed as mouse survival at 20 mg/kg iv; type: functional
[16] = Metabolic stability in mouse lung assessed as parent compound remaining measured after 4 hrs by UPLC-MS analysis; type: ADME, tissue-based; details: mouse lung, read-out: Stability
Escherichia coli [17] = assay: Antimicrobial activity against Escherichia coli assessed as microbial growth inhibition; type: functional
Escherichia coli [18] = assay: Antibacterial activity against Escherichia coli ATCC 35218 harboring SbmA assessed as reduction in microbial growth incubated for 20 to 22 hrs by CLSI based analysis; type: functional; details: time 20-22 hrs
[19] = target: T1, A-type voltage-gated potassium channel KCND3 (Homo sapiens, UniProt Q9UK17); assay: Inhibition of Kv4.3 (unknown origin)
T1 sequence (Q9UK17 whole entry): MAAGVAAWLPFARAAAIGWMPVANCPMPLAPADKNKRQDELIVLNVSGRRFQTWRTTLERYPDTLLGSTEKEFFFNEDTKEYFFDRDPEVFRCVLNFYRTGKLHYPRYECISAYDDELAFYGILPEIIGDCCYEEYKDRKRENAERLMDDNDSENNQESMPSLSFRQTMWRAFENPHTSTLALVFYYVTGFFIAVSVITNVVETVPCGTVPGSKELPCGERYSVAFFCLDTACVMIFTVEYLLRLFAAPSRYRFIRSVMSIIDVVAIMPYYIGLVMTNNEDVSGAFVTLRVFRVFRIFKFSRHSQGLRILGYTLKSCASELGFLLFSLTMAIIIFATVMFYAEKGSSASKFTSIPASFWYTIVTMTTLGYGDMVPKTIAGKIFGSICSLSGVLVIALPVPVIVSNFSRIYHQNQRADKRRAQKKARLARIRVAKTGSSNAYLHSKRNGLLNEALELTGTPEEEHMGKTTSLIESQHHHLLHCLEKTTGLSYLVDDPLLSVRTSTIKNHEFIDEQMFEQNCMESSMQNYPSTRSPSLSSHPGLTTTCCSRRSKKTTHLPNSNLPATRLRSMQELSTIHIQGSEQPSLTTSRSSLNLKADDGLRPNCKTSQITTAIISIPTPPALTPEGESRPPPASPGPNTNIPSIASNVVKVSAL

[20] = target: Voltage-gated inwardly rectifying potassium channel KCNH2 (Homo sapiens, UniProt Q12809); assay: Inhibition of hERG; type: toxicity
Voltage-gated inwardly rectifying potassium channel KCNH2, sequence (Q12809 whole entry): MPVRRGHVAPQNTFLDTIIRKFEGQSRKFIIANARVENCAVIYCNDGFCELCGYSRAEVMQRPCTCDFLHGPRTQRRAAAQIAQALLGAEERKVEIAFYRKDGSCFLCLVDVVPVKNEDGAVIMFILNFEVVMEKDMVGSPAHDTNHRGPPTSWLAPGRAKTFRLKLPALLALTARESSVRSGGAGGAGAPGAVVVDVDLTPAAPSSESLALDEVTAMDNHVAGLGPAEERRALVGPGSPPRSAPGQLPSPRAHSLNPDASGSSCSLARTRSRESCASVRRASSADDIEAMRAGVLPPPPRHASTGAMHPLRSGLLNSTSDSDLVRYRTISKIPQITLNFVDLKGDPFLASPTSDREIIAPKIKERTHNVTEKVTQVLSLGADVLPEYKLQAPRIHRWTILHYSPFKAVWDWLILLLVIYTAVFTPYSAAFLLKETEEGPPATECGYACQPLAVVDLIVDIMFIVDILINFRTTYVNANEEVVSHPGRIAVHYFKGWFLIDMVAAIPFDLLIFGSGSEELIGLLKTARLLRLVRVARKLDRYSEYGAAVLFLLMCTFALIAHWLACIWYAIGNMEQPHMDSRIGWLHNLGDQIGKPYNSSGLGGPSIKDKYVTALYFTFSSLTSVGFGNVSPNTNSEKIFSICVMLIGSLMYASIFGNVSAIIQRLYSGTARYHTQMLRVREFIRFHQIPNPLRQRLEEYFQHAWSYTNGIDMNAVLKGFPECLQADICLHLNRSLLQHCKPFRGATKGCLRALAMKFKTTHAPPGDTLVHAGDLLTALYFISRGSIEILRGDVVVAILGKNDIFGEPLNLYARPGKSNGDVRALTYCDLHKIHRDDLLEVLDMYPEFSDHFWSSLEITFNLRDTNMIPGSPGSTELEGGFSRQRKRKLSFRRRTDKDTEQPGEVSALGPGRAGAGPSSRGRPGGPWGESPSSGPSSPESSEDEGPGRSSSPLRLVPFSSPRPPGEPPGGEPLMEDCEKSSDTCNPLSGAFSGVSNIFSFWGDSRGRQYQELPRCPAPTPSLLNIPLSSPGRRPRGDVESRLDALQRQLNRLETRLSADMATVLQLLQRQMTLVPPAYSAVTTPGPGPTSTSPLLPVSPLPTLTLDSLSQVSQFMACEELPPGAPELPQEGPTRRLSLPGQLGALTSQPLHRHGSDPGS

Escherichia coli [21] = assay: Antibacterial activity against Escherichia coli ATCC 35218 assessed as reduction in microbial growth incubated for 20 to 22 hrs by CLSI based analysis; type: functional; details: time 20-22 hrs
[22] = Metabolic stability in mouse kidney assessed as parent compound remaining measured after 4 hrs by UPLC-MS analysis; type: ADME, tissue-based; details: read-out: Stability
Escherichia coli [23] = assay: Antibacterial activity against Escherichia coli ATCC 35218 infected in Swiss albino mouse model of Septicaemia infection assessed as log reduction in Septicaemia in blood at 20 mg/kg , iv preincubated for 4 hrs followed by bacterial infection and measured after 4 hrs post infection; type: functional; details: time 8 hrs
[24] = Metabolic stability in mouse kidney assessed as M2 metabolite formation measured upto 4 hrs by UPLC-MS analysis; type: ADME, tissue-based
Klebsiella pneumoniae [25] = assay: Antibacterial activity against wild type Klebsiella pneumoniae ATCC 13883 assessed as reduction in microbial growth incubated for 20 to 22 hrs by CLSI based analysis; type: functional; details: time 20-22 hrs
[26] = Metabolic stability in mouse lung assessed as parent compound remaining measured after 1 hrs by UPLC-MS analysis; type: ADME, tissue-based; details: mouse lung, read-out: Stability
[27] = Aqueous solubility of compound in PBS at pH 7.4; type: physicochemical
Escherichia coli [28] = assay: Antibacterial activity against Escherichia coli D21 assessed as reduction in microbial growth incubated for 20 to 22 hrs by CLSI based analysis; type: functional; details: time 20-22 hrs
Klebsiella pneumoniae [29] = assay: Antibacterial activity against Klebsiella pneumoniae ATCC 13883 harboring SbmA assessed as reduction in microbial growth incubated for 20 to 22 hrs by CLSI based analysis; type: functional; details: time 20-22 hrs
Escherichia coli [30] = assay: Antibacterial activity against Escherichia coli ATCC 35218 infected in Swiss albino mouse model of Septicaemia infection assessed as log reduction in Septicaemia in blood at 10 mg/kg , iv preincubated for 4 hrs followed by bacterial infection and measured after 4 hrs post infection; type: functional; details: time 8 hrs

CO[C@@H](CNC(=O)[C@H](NC(=O)[C@H](O)[C@H](C)O)[C@H](O)c1cncn1C)[C@H](O)[C@H](O)C(=O)N(C)[C@@H](Cc1ccccc1)C(=O)NCC(=O)N[C@H](C(=O)N[C@@H](CO)C(=O)N[C@H](C(=O)N[C@@H](CC(C)C)C(=O)N[C@@H](CO)C(=O)O)C(C)(C)O)C(C)(C)O ({Butanoyl(2R-OH,3S-OH)}-[dHis(βS-OH,π-Me)][Ava(2S,3R-(OH)2,4S-OMe)][NMeF]G[Val(3-OH)]S[Val(3-OH)]LS-OH)
Papp [1]: < 10 ×10⁻⁶ cm/s
IC50 [2]: > 30 µM
IC50 [3]: > 30 µM
IC50 [4]: > 30 µM
MIC (Klebsiella pneumoniae [5]): 16 µg/mL
MIC (Escherichia coli [6]): 4 µg/mL
MIC (Escherichia coli [7]): 0.25 µg/mL
Drug metabolism [8]: Metabolite_Detected
MIC (Acinetobacter baumannii [9]): > 32 µg/mL
MIC (Pseudomonas aeruginosa): > 64 µg/mL
MIC (Acinetobacter baumannii [10]): > 32 µg/mL
inhibition at 30 µM (HepG2): 0%
remaining at 1 h [11]: 41%
Drug metabolism [12]: Metabolite_Detected
MIC (Klebsiella pneumoniae [13]): ≥ 64 µg/mL
logD [14]: 0.68
Activity (Escherichia coli [15]): <=60%
remaining at 4 h [16]: 1%
MIC (Escherichia coli [17]): 1 µg/mL (≈ 0.844 µM)
MIC (Escherichia coli [18]): 4 µg/mL
IC50 [19]: > 30 µM
IC50 [20]: > 30 µM
MIC (Escherichia coli [21]): 4 µg/mL
remaining at 4 h [22]: 6%
Activity (Escherichia coli [23]): -3.3 log10CFU
Drug metabolism [24]: Metabolite_Detected
MIC (Klebsiella pneumoniae [25]): 16 µg/mL
remaining at 1 h [26]: 7%
solubility [27]: 2800 µg/mL (≈ 2360 µM)
MIC (Escherichia coli [28]): 4 µg/mL
MIC (Klebsiella pneumoniae [29]): 16 µg/mL

CO[C@@H](CNC(=O)[C@H](NC(=O)[C@H](O)[C@H](C)O)[C@H](O)c1cncn1C)[C@H](O)[C@H](O)C(=O)N(C)[C@@H](Cc1ccccc1)C(=O)NCC(=O)N[C@H](C(=O)N[C@@H](CO)C(=O)N[C@H](C(=O)N[C@H](C(=O)N[C@@H](CO)C(=O)O)C(C)(C)C)C(C)(C)O)C(C)(C)O
MIC (Klebsiella pneumoniae [5]): 2 µg/mL
MIC (Acinetobacter baumannii [10]): > 32 µg/mL
remaining at 1 h [11]: 104%
remaining at 4 h [16]: 104%
MIC (Escherichia coli [21]): 2 µg/mL
remaining at 4 h [22]: 72%
remaining at 1 h [26]: 105%
Activity (Escherichia coli [30]): -5.9 log10CFU
